Data taken from patent US20240382518A1, “PHARMACEUTICAL COMPOSITION AND HEALTH FUNCTIONAL FOOD FOR PREVENTION OR TREATMENT OF OSTEOARTHRITIS” (SEOUL NATIONAL UNIVERSITY R&DB FOUNDATION, priority 2021, published 2024).

What was measured:
[1] = tested on: SEPHS1-iCKO mice; experiment: post-traumatic osteoarthritis (DMM surgery) in SEPHS1-iCKO mice with NAC or selenate in drinking water; assay type: in vivo, mouse; conditions: for osteoarthritis phenotype of SEPHS1-iCKO mice: drinking water with NAC 1 mg/mL or sodium selenate 1 ppm, from 5 days prior to DMM
Description: Selenate supplementation or NAC treatment was performed by supplying mice with drinking water in which sodium selenate (1 ppm) or NAC (1 mg/mL) was dissolved. Further, to Sephs1-iCKO mice, NAC, selenate or vehicle was supplemented 5 days prior to DMM surgery.
Posttraumatic osteoarthritis (OA) was induced by executing DMM surgery in 12-week-old (WT C57BL/6) or 13-week-old (SEPHS1^fl/fl or SEPHS1^fl/fl; Col2a1-CreER^T2) mice, and mice (sham) without DMM after incision were used as a control. These mice were sacrificed 6 or 8 weeks after DMM or sham surgery.
As an aging-associated OA model, 24-month-old C57BL/6 male mice were used for histological analysis and 3-month-old mice were used as a control. The extent of cartilage degeneration in the knee joint was assessed by safranin-O staining and scored using the OARSI grading system.

[2] = tested on: SEPHS1 knockout mouse-derived chondrocytes; experiment: DNA damage (γ-H2AX foci) in SEPHS1 knockout mouse-derived chondrocytes; assay type: cell-based; conditions: after NAC treatment
Description: (§1) For primary culture of mouse articular chondrocytes, cells derived from femoral condyle and tibial plateaus of 5-day-old ICR mice were isolated. Chondrocytes were cultured in DMEM medium containing 10% FBS (Gibco), 100 units/mL of penicillin, and 100 μg/mL of streptomycin. After 2 days, cells were treated according to the purpose of each experiment. The cultured cells were maintained at 37° C. under 5% CO2 and 3% O2 conditions. In addition, DNA damage and senescence-associated β-galactosidase (SA-β-gal) activity were measured to determine the relationship between SEPHS1 deficiency and cellular senescence. […] In order to determine whether the DNA damage and the increase in SA-β-gal activity caused by SEPHS1 inhibition were caused by the accumulation of ROS, SEPHS1 knockout mouse-derived chondrocytes were additionally treated with N-acetylcysteine (NAC), followed by repeatedly performing the same experiment. As a result, it was confirmed that DNA damage caused by SEPHS1 inhibition and the increase in SA-β-gal activity were reduced after NAC treatment (FIGS. 3P to 3S).

[3] = tested on: SEPHS1 knockout mouse-derived chondrocytes; experiment: senescence-associated β-galactosidase (SA-β-gal) activity in SEPHS1 knockout mouse-derived chondrocytes; assay type: cell-based; conditions: after NAC treatment
Description: as §1

increase in SA-β-gal activity [3] | SMILES | weight imbalance between the operated legs and the other legs without operation ([1]; SEPHS1-iCKO mice, NAC 1 mg/mL in drinking water) | osteoarthritis phenotype of SEPHS1-iCKO mice [1] | DNA damage caused by SEPHS1 inhibition [2]
reduced | CC(=O)N[C@@H](CS)C(=O)O [NAC, N-acetylcysteine] | alleviated | alleviated | reduced
– | O=[Se](=O)([O-])[O-].[Na+].[Na+] [selenate, sodium selenate] | – | did not restore | –
